Where a name gives a salt, the structure may show the parent alone. Read-outs that look alike come from different tables or passages of the source.

The text below walks through data of US10004701B2, “Methods and compositions for treating infection” (UNIVERSITY OF ROCHESTER, priority 2012, dated 2018).

Common to all, as to test: AK assay 384-well format, Prestwick library screening
Assay [1] deals with A. baumannii strain 98-37-09. The assay is classed as cell-based, Acinetobacter baumannii. Particulars: 50 μM final drug concentration; for fold induction at 50 µM: Acinetobacter baumannii, 983709, 3 h.
For the next assay, the system named is P. aeruginosa. The assay is classed as cell-based, Pseudomonas aeruginosa. Particulars: 50 μM final drug concentration; for fold induction at 50 µM: Pseudomonas aeruginosa, 3 h.
For the next assay, the system named is E. faecium. The assay is classed as cell-based, Enterococcus faecium. Particulars: 50 μM final drug concentration; for fold induction at 50 µM: Enterococcus faecium, 3 h.
The next assay relates to K. pneumoniae. The assay is classed as cell-based, Klebsiella pneumoniae. Particulars: 50 μM final drug concentration; for fold induction at 50 µM: Klebsiella pneumoniae, 3 h.
For another assay, the system named is E. cloacae. The assay is classed as cell-based, Enterobacter cloacae. Particulars: 50 μM final drug concentration; for fold induction at 50 µM: Enterobacter cloacae, 3 h.
Assay [2] relates to S. aureus strain USA300-0114. The assay is classed as cell-based, Staphylococcus aureus. Particulars: 50 μM final drug concentration; for fold induction at 50 µM: Staphylococcus aureus, USA300, 3 h.
For a further assay, the system named is E. coli. The assay is classed as cell-based, Escherichia coli. Particulars: 50 μM final drug concentration; for fold induction at 50 µM: Escherichia coli, 3 h.
Setting [3] is: planktonic, cutoff for positive 3-fold increase.

As to `C[C@@H]1O[C@@H](O[C@@H]2C=C3CC[C@@H]4[C@H](CC[C@]5(C)[C@@H](c6ccc(=O)oc6)CC[C@]45O)[C@@]3(C)CC2)[C@H](O)[C@H](O)[C@H]1O` [Proscillaridin A], the “AK-based Prestwick library screening result, A. baumannii (fold increase in extracellular AK activity)” value in assay [1] (planktonic A. baumannii, […]) is recorded as 0.8. The “AK-based Prestwick library screening result, P. aeruginosa (fold increase in extracellular AK activity)” value in the assay on P. aeruginosa (planktonic P. aeruginosa, […]) was determined as 0.9. In addition, in the assay with E. faecium (planktonic E. faecium, […]), the “AK-based Prestwick library screening result, E. faecium (fold increase in extracellular AK activity)” value came to 0.8. Also, the “AK-based Prestwick library screening result, K. pneumoniae (fold increase in extracellular AK activity)” value in the assay with K. pneumoniae (planktonic K. pneumoniae, […]) came out at 0.7. Further, the “AK-based Prestwick library screening result, E. cloacae (fold increase in extracellular AK activity)” value in the assay on E. cloacae (planktonic E. cloacae, […]) is 0.9. Further, the “AK-based Prestwick library screening result, S. aureus (fold increase in extracellular AK activity)” value in assay [2] (planktonic S. aureus, […]) is on record as 0.6. In the assay with E. coli (planktonic E. coli, […]), the “AK-based Prestwick library screening result, E. coli (fold increase in extracellular AK activity)” value was 0.9.

Regarding `CC[C@@H](C)C(=O)O[C@H]1[C@H](O)[C@H]2[C@@H](CN3C[C@@H](C)CC[C@H]3[C@@]2(C)O)[C@@H]2C[C@]34O[C@]5(O)[C@@H](OC(=O)[C@@](C)(O)CC)CC[C@@]3(C)[C@@H]5[C@@H](OC(C)=O)[C@@H](OC(C)=O)[C@H]4[C@@]21O` [Protoveratrine A], in assay [1] (planktonic, […]), the “AK-based Prestwick Library Screening Results, A. baumannii (fold increase in extracellular AK activity)” value was 1.2. In addition, in the assay with P. aeruginosa (planktonic, […]), the “AK-based Prestwick Library Screening Results, P. aeruginosa (fold increase in extracellular AK activity)” value stood at 1.1. For the same compound, the “AK-based Prestwick Library Screening Results, E. faecium (fold increase in extracellular AK activity)” value in the assay with E. faecium (planktonic, […]) amounted to 1.0. Also, the “AK-based Prestwick Library Screening Results, K. pneumoniae (fold increase in extracellular AK activity)” value with K. pneumoniae (planktonic, […]) is 1.2. Besides, the “AK-based Prestwick Library Screening Results, E. cloacae (fold increase in extracellular AK activity)” value with E. cloacae (planktonic, […]) was 1.3. The “AK-based Prestwick Library Screening Results, S. aureus (fold increase in extracellular AK activity)” value in assay [2] (planktonic, […]) is 1.2. The “AK-based Prestwick Library Screening Results, E. coli (fold increase in extracellular AK activity)” value in the assay on E. coli (planktonic, […]) is listed as 1.1.

Consider `CNCCCC1c2ccccc2C=Cc2ccccc21` [Protriptyline hydrochloride], for which the fold induction at 50 µM is 1.1 in assay [1] (cutoff for positive-scoring molecules 3-fold increase, read-out: AK-based Prestwick Library Screening Results, A. baumannii (fold increase in extracellular AK activity)); 1.2 with P. aeruginosa (cutoff for positive-scoring molecules 3-fold increase, read-out: AK-based Prestwick Library Screening Results, P. aeruginosa (fold increase in extracellular AK activity)); 1 with E. faecium (cutoff for positive-scoring molecules 3-fold increase, read-out: AK-based Prestwick Library Screening Results, E. faecium (fold increase in extracellular AK activity)); 1.1 in the assay on K. pneumoniae (cutoff for positive-scoring molecules 3-fold increase, read-out: AK-based Prestwick Library Screening Results, K. pneumoniae (fold increase in extracellular AK activity)); 1.4 in the assay on E. cloacae (cutoff for positive-scoring molecules 3-fold increase, read-out: AK-based Prestwick Library Screening Results, E. cloacae (fold increase in extracellular AK activity)); 2.8 in assay [2] (cutoff for positive-scoring molecules 3-fold increase, read-out: AK-based Prestwick Library Screening Results, S. aureus (fold increase in extracellular AK activity)). Also, the fold induction at 50 µM with E. coli (cutoff for positive-scoring molecules 3-fold increase, read-out: AK-based Prestwick Library Screening Results, E. coli (fold increase in extracellular AK activity)) was found to be 1.2.

Consider `CC(O)Cn1cnc2c1c(=O)n(C)c(=O)n2C` (centres unmarked) [Proxyphylline], for which the fold induction at 50 µM in assay [1] (planktonic, cutoff for positive-scoring molecules 3-fold increase, read-out: AK-based Prestwick Library Screening Results, A. baumannii (fold increase in extracellular AK activity)) is 0.6; with P. aeruginosa (planktonic, cutoff for positive-scoring molecules 3-fold increase, read-out: AK-based Prestwick Library Screening Results, P. aeruginosa (fold increase in extracellular AK activity)), 0.5; in the assay with E. faecium (planktonic, cutoff for positive-scoring molecules 3-fold increase, read-out: AK-based Prestwick Library Screening Results, E. faecium (fold increase in extracellular AK activity)), 0.9; with K. pneumoniae (planktonic, cutoff for positive-scoring molecules 3-fold increase, read-out: AK-based Prestwick Library Screening Results, K. pneumoniae (fold increase in extracellular AK activity)) it was 0.5; with E. cloacae (planktonic, cutoff for positive-scoring molecules 3-fold increase, read-out: AK-based Prestwick Library Screening Results, E. cloacae (fold increase in extracellular AK activity)), 0.5; in assay [2] (planktonic, cutoff for positive-scoring molecules 3-fold increase, read-out: AK-based Prestwick Library Screening Results, S. aureus (fold increase in extracellular AK activity)), 0.5. Besides, the fold induction at 50 µM with E. coli (planktonic, cutoff for positive-scoring molecules 3-fold increase, read-out: AK-based Prestwick Library Screening Results, E. coli (fold increase in extracellular AK activity)) amounted to 0.5.

Take `CN1[C@@H]2CCC[C@H]1CC(=O)C2.Cl` [Pseudopelletierine hydrochloride]: the “AK-based Prestwick Library Screening Results, A. baumannii (fold increase in extracellular AK activity)” value in assay [1] (setting [3]) is recorded as 1.2. Further, the “AK-based Prestwick Library Screening Results, P. aeruginosa (fold increase in extracellular AK activity)” value in the assay with P. aeruginosa (setting [3]) was 1.1. Besides, the “AK-based Prestwick Library Screening Results, E. faecium (fold increase in extracellular AK activity)” value in the assay with E. faecium (setting [3]) was 0.9. The “AK-based Prestwick Library Screening Results, K. pneumoniae (fold increase in extracellular AK activity)” value in the assay on K. pneumoniae (setting [3]) came out at 1.2. Also, in the assay with E. cloacae (setting [3]), the “AK-based Prestwick Library Screening Results, E. cloacae (fold increase in extracellular AK activity)” value is given as 1.5. Further, the “AK-based Prestwick Library Screening Results, S. aureus (fold increase in extracellular AK activity)” value in assay [2] (setting [3]) amounted to 1.0. Besides, in the assay on E. coli (planktonic, […]), the “AK-based Prestwick Library Screening Results, E. coli (fold increase in extracellular AK activity)” value is on record as 1.4.

For the compound `COc1ccc(C[C@H](N)C(=O)N[C@H]2[C@@H](O)[C@H](n3cnc4c(N(C)C)ncnc43)O[C@@H]2CO)cc1` [Puromycin dihydrochloride], the fold induction at 50 µM is 1.6 in assay [1] (planktonic, cutoff for positive 3-fold increase, read-out: AK-based Prestwick Library Screening Results, A. baumannii (fold increase in extracellular AK activity)); 1 in the assay on P. aeruginosa (planktonic, cutoff for positive 3-fold increase, read-out: AK-based Prestwick Library Screening Results, P. aeruginosa (fold increase in extracellular AK activity)); 1.1 in the assay with E. faecium (planktonic, cutoff for positive 3-fold increase, read-out: AK-based Prestwick Library Screening Results, E. faecium (fold increase in extracellular AK activity)); 1.1 with K. pneumoniae (planktonic, cutoff for positive 3-fold increase, read-out: AK-based Prestwick Library Screening Results, K. pneumoniae (fold increase in extracellular AK activity)); 1.4 in the assay with E. cloacae (planktonic, cutoff for positive 3-fold increase, read-out: AK-based Prestwick Library Screening Results, E. cloacae (fold increase in extracellular AK activity)); 1.1 in assay [2] (planktonic, cutoff for positive 3-fold increase, read-out: AK-based Prestwick Library Screening Results, S. aureus (fold increase in extracellular AK activity)). The fold induction at 50 µM in the assay with E. coli (planktonic, cutoff for positive 3-fold increase, read-out: AK-based Prestwick Library Screening Results, E. coli (fold increase in extracellular AK activity)) came out at 1.1.

`NC(=O)c1cnccn1` [Pyrazinamide]: the fold induction at 50 µM in assay [1] (planktonic A. baumannii, cutoff for positive-scoring molecules 3-fold increase, read-out: AK-based Prestwick Library Screening Results, A. baumannii (increase in extracellular AK activity)) amounted to 0.9; in the assay on P. aeruginosa (planktonic P. aeruginosa, cutoff for positive-scoring molecules 3-fold increase, read-out: AK-based Prestwick Library Screening Results, P. aeruginosa (increase in extracellular AK activity)), 0.8; in the assay on E. faecium (planktonic E. faecium, cutoff for positive-scoring molecules 3-fold increase, read-out: AK-based Prestwick Library Screening Results, E. faecium (increase in extracellular AK activity)), 0.8; in the assay on K. pneumoniae (planktonic K. pneumoniae, cutoff for positive-scoring molecules 3-fold increase, read-out: AK-based Prestwick Library Screening Results, K. pneumoniae (increase in extracellular AK activity)), 0.8; in the assay on E. cloacae (planktonic E. cloacae, cutoff for positive-scoring molecules 3-fold increase, read-out: AK-based Prestwick Library Screening Results, E. cloacae (increase in extracellular AK activity)) it was 1.2; in assay [2] (planktonic S. aureus, cutoff for positive-scoring molecules 3-fold increase, read-out: AK-based Prestwick Library Screening Results, S. aureus (increase in extracellular AK activity)), 0.7. Further, the fold induction at 50 µM in the assay with E. coli (planktonic E. coli, cutoff for positive-scoring molecules 3-fold increase, read-out: AK-based Prestwick Library Screening Results, E. coli (increase in extracellular AK activity)) worked out at 0.9.

As to `Cc1ncc(CO)c(CO)c1O` [Pyridoxine hydrochloride], the fold induction at 50 µM in assay [1] (planktonic, […], read-out: AK-based Prestwick Library Screening Results, A. baumannii (fold increase in extracellular AK activity)) is 1.4; in the assay with P. aeruginosa (planktonic, […], read-out: AK-based Prestwick Library Screening Results, P. aeruginosa (fold increase in extracellular AK activity)) it was 1.2; with E. faecium (planktonic, […], read-out: AK-based Prestwick Library Screening Results, E. faecium (fold increase in extracellular AK activity)) it was 1; in the assay with K. pneumoniae (planktonic, […], read-out: AK-based Prestwick Library Screening Results, K. pneumoniae (fold increase in extracellular AK activity)), 1.1; with E. cloacae (planktonic, […], read-out: AK-based Prestwick Library Screening Results, E. cloacae (fold increase in extracellular AK activity)), 1.7; in assay [2] (planktonic, […], read-out: AK-based Prestwick Library Screening Results, S. aureus (fold increase in extracellular AK activity)), 1.3. Also, the fold induction at 50 µM in the assay on E. coli (planktonic, […], read-out: AK-based Prestwick Library Screening Results, E. coli (fold increase in extracellular AK activity)) was found to be 1.4.
